# Test results as given in publication PMC7344333 (Journal of medicinal chemistry, 2019).
# pEC50: −log10 of the molar value.
# How the values were obtained:
# LPA2 = conditions: read-out: EC50 at LPA2; cited from earlier work
# LPA1 = conditions: read-out: EC50 at LPA1; cited from earlier work
# LPA1 receptor = LPA1 receptor (Homo sapiens, UniProt Q92633); assay: Ca2+ mobilization assay in LPA1 stably transfected RH7777 cells; assay type: cell-based; conditions: for LPA1 agonist activity (in words): highest concentration tested 10 μM
# [1] = stability studies in PBS and cellular culture medium; assay type: physicochemical; conditions: up to 8 hours at 37 °C
# [2] = test system: B103 neuroblastoma cells overexpressing LPA1 receptor; assay: transwell migration assay; assay type: cell-based; conditions: 1 μM in lower chamber, 5 h
# mice with SNI = assay: spared nerve injury; assay type: in vivo, mouse; conditions: 10 mg/kg i.p. daily; 3, 10 and 21 days post-surgery, vs vehicle
# mice [3] = assay: open field test, exploratory and locomotor activity; assay type: in vivo, mouse; conditions: at the selected dose (10 mg/kg i.p.)
# [4] = test system: DRG neurons (nociceptors); assay: multielectrode array; assay type: cell-based, rat; conditions: 10 μM, two consecutive pulses
# mice [5] = assay: acetic acid-induced writhing assay; assay type: in vivo, mouse
# [6] = test system: dorsal root ganglia (DRG) neurons; assay: calcium microfluorography in primary DRG sensory neurons; assay type: cell-based, rat; conditions: two repetitive applications of 10 μM
# [7] = test system: B103 neuroblastoma cells overexpressing EGFP-LPA1 receptor; assay: neurite retraction assay; assay type: cell-based; conditions: 15 minutes treatment
# [8] = test system: EGFP-LPA1 fusion receptor; assay: LPA1 receptor internalization assay; conditions: 1 μM
# Sequence of LPA1 receptor (Q92633 whole entry): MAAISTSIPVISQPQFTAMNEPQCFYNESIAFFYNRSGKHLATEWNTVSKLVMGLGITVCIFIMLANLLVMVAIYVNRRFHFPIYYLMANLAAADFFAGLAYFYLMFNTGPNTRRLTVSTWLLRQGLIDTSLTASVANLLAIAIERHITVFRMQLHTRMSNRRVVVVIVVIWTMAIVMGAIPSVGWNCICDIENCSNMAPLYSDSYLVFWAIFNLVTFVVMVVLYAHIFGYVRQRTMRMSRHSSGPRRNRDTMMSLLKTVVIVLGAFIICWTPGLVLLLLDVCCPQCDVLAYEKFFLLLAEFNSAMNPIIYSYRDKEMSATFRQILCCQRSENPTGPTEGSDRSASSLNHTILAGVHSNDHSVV
compound,measurement,setting,value
CCCCCCCC/C=C\CCCCCCCC(=O)NCCC(=O)P(=O)(O)O [Compound 2],pEC50,LPA2,5.96
same,pEC50,LPA1,6.66
"CCCCCCCCCC/C=C\CCCCCCCC(=O)OC[C@@H](O)COP(=O)(O)O [Compound 16, (2R)-2-Hydroxy-3-(phosphonooxy)propyl (9Z)-icos-9-enoate]",LPA1 agonist activity (in words),LPA1 receptor,inactive
"O=C(CCCCCCCc1ccccc1)OC[C@@H](O)COP(=O)(O)O [Compound 19, (2R)-2-Hydroxy-3-(phosphonooxy)propyl 8-phenyloctanoate]",LPA1 agonist activity (in words),LPA1 receptor,inactive
"O=C(CCCCCCCCCc1ccccc1)O[C@H](CBr)COP(=O)(O)O [Compound (S)-17, (2S)-1-Bromo-3-(phosphonooxy)propan-2-yl 10-phenyldecanoate]",compound remaining (stability),[1]; PBS,> 85%
same,compound remaining (stability),[1]; culture media,> 85%
same,cell migration,[2],induced cell migration
same,mechanical nociceptive threshold,mice with SNI,significantly superior compared to vehicle-treated mice
same,exploratory or locomotor activity,mice [3],did not induce any alteration in the exploratory or locomotor activity
same,neuronal firing of action potentials on repeated application,[4],provoked the firing of action potentials that were attenuated upon a second instillation
same,number of writhes after acute single administration,mice [5],increased the number of writhes in the first minutes after the administration
same,Ca2+ response on repeated application,[6],induced a reduction of the Ca^2+ responses
same,neurite retraction,[7],induced neurite retraction
"CCCCCCCC/C=C\CCCCCCCC(=O)OC[C@@H](O)COP(=O)(O)O [LPA, 1-oleoyl-sn-glycerol-3-phosphate, reference compound]",Ca2+ response relative to 10 μM ionomycin,"LPA1 receptor; 10 μM LPA, positive control",30–33%
same,Emax at 10 µM,LPA1 receptor; RH7777,100%
same,neuronal firing of action potentials on repeated application,[4],provoked the firing of action potentials that were attenuated upon a second instillation
same,Ca2+ response on repeated application,[6],the Ca^2+ response is notably reduced in a second LPA application
same,LPA1 internalization,[8],the receptor is internalized
